“Also recorded” adds a separate entry of the source. Like-named read-outs stand apart in the source and are kept apart here.
How the values were obtained:
CpCDPK1 = CpCDPK1 (Cryptosporidium parvum (strain Iowa II), UniProt A3FQ16); type: biochemical
TgCDPK1 [1] = target: T1, TgCDPK1 (Toxoplasma gondii, UniProt Q9BJF5); type: biochemical; settings: read-out: Km for ATP
TgCDPK1 [2] = target: T1, TgCDPK1; type: biochemical; settings: read-out: Km of substrates
P. berghei = test system: P. berghei; parameters: species or system Plasmodium berghei; settings: in vivo
[3] = test system: P. falciparum NF54 gametocytes; type: cell-based, Plasmodium falciparum
[4] = Solubility in buffers of various pH; type: physicochemical
[5] = test system: P. berghei expressing PfCDPK4-2x-myc; parameters: species or system Plasmodium berghei; settings: in vivo
C. parvum [6] = assay: Immunosuppressed (SCID-beige) mouse C. parvum model; type: in vivo, Cryptosporidium parvum; settings: oral gavage once a day, days 3-7 and 10-14
Method: Shown are mean of the parasite numbers detected in 25 mg of stool from each mouse, by qRT-PCR.

CRL8155 = assay: Growth inhibition / toxicity, human lymphocyte CRL8155
HL-60 = assay: Growth inhibition / toxicity, promyelocytic leukemia HL-60
in vitro [7] = settings: human
in vitro [8] = settings: human; remark: listed apart in the source
PfCDPK1 = PfCDPK1 (Plasmodium falciparum (isolate 3D7), UniProt P62344); assay: biochemical; settings: read-out: PfCDPK1 (% inhibition @ 3 uM)
in vitro [9] = settings: human; remark: listed apart in the source
in vitro [10] = settings: human; remark: listed apart in the source
SF539 = assay: Growth inhibition / toxicity, glioma derived SF539
HC 2998 = assay: Growth inhibition / toxicity, colorectal carcinoma HC 2998
PfCDPK4 = PfCDPK4 (Plasmodium falciparum (isolate 3D7), UniProt Q8IBS5); assay: biochemical; settings: read-out: PfCDPK4 (% inhibition @ 3 uM)
human fibroblast = assay: Fibroblast cytotoxicity / replication (Alamar blue); type: cell-based; settings: concentration at which toxicity (T) was observed
T. gondii = assay: microbe, parasite or virus in culture; settings: Toxoplasma gondii, read-out: Parasite Proliferation Assay EC50 T. gondii
C. parvum [11] = assay: C. parvum infection of HCT-8 cells (rRNA RT-PCR); type: cell-based, Cryptosporidium parvum
P. falciparum = assay: microbe, parasite or virus in culture; settings: Plasmodium falciparum, read-out: Proliferation Blocking P. falciparum (EC50, μM)

Chain of CpCDPK1 (A3FQ16 1-538): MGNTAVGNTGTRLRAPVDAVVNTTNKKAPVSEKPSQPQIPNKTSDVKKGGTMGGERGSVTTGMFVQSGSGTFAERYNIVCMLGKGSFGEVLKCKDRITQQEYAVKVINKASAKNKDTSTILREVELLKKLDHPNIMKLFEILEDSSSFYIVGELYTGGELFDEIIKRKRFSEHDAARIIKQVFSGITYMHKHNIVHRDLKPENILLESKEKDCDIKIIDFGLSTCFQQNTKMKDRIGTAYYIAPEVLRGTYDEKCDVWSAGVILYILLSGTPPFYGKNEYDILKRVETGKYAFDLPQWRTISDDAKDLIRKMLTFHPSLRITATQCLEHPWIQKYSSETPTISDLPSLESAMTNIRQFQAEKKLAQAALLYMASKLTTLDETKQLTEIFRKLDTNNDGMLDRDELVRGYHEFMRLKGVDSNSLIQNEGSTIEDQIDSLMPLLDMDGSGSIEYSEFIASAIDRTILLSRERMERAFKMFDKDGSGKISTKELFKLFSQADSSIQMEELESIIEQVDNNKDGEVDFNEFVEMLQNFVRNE
T1 sequence (Q9BJF5 1-507): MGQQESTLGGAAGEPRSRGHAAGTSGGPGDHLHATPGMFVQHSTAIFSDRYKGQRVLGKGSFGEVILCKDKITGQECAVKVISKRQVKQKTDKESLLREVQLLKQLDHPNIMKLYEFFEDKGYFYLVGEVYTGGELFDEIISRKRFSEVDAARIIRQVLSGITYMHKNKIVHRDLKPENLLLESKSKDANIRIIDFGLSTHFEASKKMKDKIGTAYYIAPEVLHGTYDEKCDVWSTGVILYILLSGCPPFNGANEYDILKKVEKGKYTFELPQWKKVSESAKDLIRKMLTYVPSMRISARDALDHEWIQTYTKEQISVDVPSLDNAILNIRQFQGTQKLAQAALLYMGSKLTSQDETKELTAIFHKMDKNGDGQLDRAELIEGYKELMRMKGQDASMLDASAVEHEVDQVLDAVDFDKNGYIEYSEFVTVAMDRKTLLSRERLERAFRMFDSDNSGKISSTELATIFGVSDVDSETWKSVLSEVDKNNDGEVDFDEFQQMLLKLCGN

“6-(4-amino-1-(piperidin-4-ylmethyl)-1H- pyrazolo[3,4-d]pyrimidin-3-yl)-N,N- dimethylquinolin-2-amine [Compound 68]” gave an IC50 (CpCDPK1) greater than 3 µM.

Compound `Nc1ncnc2c1ncn2[C@@H]1O[C@H](COP(=O)(O)OP(=O)(O)OP(=O)(O)O)[C@@H](O)[C@H]1O` [ATP] has a Km (TgCDPK1 [1]) of 10 µM, a Km (TgCDPK1 [2]) of 10 µM and a Km (CpCDPK1; read-out: Km for ATP) of 9 µM.

With `CCOc1ccc2cc(-c3nn(CC4CCNCC4)c4ncnc(N)c34)ccc2c1` [Compound 29, 3-(6-ethoxynaphthalen-2-yl)-1-(piperidin-4-ylmethyl)-1H-pyrazolo[3,4-d]pyrimidin-4-amine] the exflagellation (P. berghei) was “sufficient to block exflagellation”, the “formation of oocysts in A. stephensi fed on treated mice” value (P. berghei) was “completely blocked” and the “impact on asexual parasitaemia or gametocyte rates” value (P. berghei) was “no impact”. The P. falciparum exflagellation [3] was “complete suppression; also recorded: prevented the exflagellation”, the “exflagellation events, repeat experiment” value [3] was “suppressed completely” and the “infection of A. stephensi midguts” value [3] was “prevented”. The “infective sporozoites in salivary glands” value [3] was “complete absence”, the “prevalence of oocyst infections” value [3] was “reduced the prevalence” and the “Experimental Solubility pH 7.4” value [4] was 49 μM. For the same compound, the “duration of complete suppression of exflagellation” value [5] was 14 h, the “exflagellation 20 hours after dosing” value [5] was “some exflagellation was observed” and the “exflagellation in blood samples from treated mice” value [5] was “complete suppression; also recorded: completely suppressed”. The “parasites in stool at the end of treatment (qRT-PCR)” value (from here on “parasites in stool at the end”) (C. parvum [6]) was “not detected” and the “rebound of parasite burden after treatment” value (“rebound of parasite burden” below) (C. parvum [6]) was “slowly”.

For `CC(C)(C)n1nc(-c2cccc3ccccc23)c2c(N)ncnc21` [Compound 1, 1-tert-butyl-3-(naphthalen-1-yl)-1H-pyrazolo[3,4-d]pyrimidin-4-amine], the “Cell Toxicity CRL8155, % at 25 μM” value (CRL8155) was less than 30% at 25 μM, the “Cell Toxicity HL60, % at 25 μM” value (HL-60) was less than 30% at 25 μM and the GI50 (in vitro [7]) was greater than 10 µM. The GI50 (in vitro [8]) was greater than 10 µM, the inhibition at 3 µM (PfCDPK1) was 51% and the GI50 (in vitro [9]) was greater than 10 µM. The GI50 (in vitro [10]) was greater than 10 µM, the “Cell Toxicity SF539, % at 25 μM” value (SF539) was less than 30% at 25 μM and the “Cell Toxicity HCC2998, % at 25 μM” value (HC 2998) was less than 30% at 25 μM. The inhibition at 3 µM (PfCDPK4) was 25%.

Work on `CC(C)(C)n1nc(-c2ccc(Cl)cc2)c2c(N)ncnc21` [Compound 146] yielded an inhibition at 3 µM (PfCDPK1) of 99% and an inhibition at 3 µM (PfCDPK4) of 95%.

With `NC[C@@H]1O[C@H](O[C@H]2[C@@H](O)[C@H](O[C@@H]3[C@@H](O)[C@H](N)C[C@H](N)[C@H]3O[C@H]3O[C@H](CO)[C@@H](O)[C@H](O)[C@H]3N)O[C@@H]2CO)[C@H](N)[C@@H](O)[C@@H]1O` [Paromomycin, reference compound] the “parasites in stool at the end” value (C. parvum [6]) was “not detected” and the “rebound of parasite burden” value (C. parvum [6]) was “quickly rebounded”.

With `CCOc1ccc2cc(-c3nn(CC4CCN(C)CC4)c4ncnc(N)c34)ccc2c1` [Compound 150, 3-(6-ethoxynaphthalen-2-yl)-1-((1-methylpiperidin-4-yl)methyl)-1H-pyrazolo[3,4-d]pyrimidin-4-amine] the “Observed HFF Toxicity (T at concentration)” value (human fibroblast) was “T at 25 μM”, the EC50 (T. gondii) was 0.137 µM and the EC50 (C. parvum [11]; Cryptosporidium parvum, HCT-8, read-out: Parasite Proliferation Assay EC50 C. parvum) was 0.54 µM. For the same compound, the “parasites in stool at the end” value (C. parvum [6]) was “not detected” and the “rebound of parasite burden” value (C. parvum [6]) was “not”.

For `CC(C)(C)n1nc(-c2ccc3ccccc3c2)c2c(N)ncnc21` [NA-PP2, reference compound], the “formation of oocysts in A. stephensi fed on treated mice” value (P. berghei) was “hundreds of oocysts per mosquito”.

In the case of `COc1ccc2cc(-c3nn(CC4CCNCC4)c4ncnc(N)c34)ccc2c1` [Compound 28, 3-(6-methoxynaphthalen-2-yl)-1-(piperidin-4-ylmethyl)-1H-pyrazolo[3,4-d]pyrimidin-4-amine], the EC50 (P. falciparum) is reported as 31.9 µM and the “Experimental Solubility pH 7.4” value [4] is reported as 56 μM.

In the case of `CC(C)(C)n1nc(-c2ccc3ccccc3c2)c2c(N)ncnc21` [Compound 2, 1-tert-butyl-3-(naphthalen-2-yl)-1H-pyrazolo[3,4-d]pyrimidin-4-amine], the GI50 (in vitro [7]; HCC2998 (HC 2998) colorectal carcinoma cells) is reported as […], the GI50 (in vitro [8]; SF539 glioma-derived cells) is reported as […] and the GI50 (in vitro [9]; HL-60 human promyelocytic leukemia cells) is reported as […]. For the same compound, the GI50 (in vitro [10]; CRL8155 human lymphocyte cells) was […] and the “C. parvum parasite levels in HCT-8 cells” value (C. parvum [11]; inhibitor at time of infection and one hour after infection) was “most potent effect”.

Reference: patent US10544104B2, “Compositions and methods for treating toxoplasmosis, cryptosporidiosis, and other apicomplexan protozoan related diseases” (University of Washington through its Center for …, priority 2010, dated 2020)
